We go through 19 molecules from US12319655B2, “RAF kinase inhibitors and methods of use thereof” (Deciphera Pharmaceuticals, LLC, priority 2021, dated 2025).

Assay [1] relates to A375 cells. The assay is described as follows: A375 Cell Proliferation Assay (2). The assay is classed as cell-based. As to conditions: Homo sapiens, A-375.
The target in assay [2] is B-Raf (V600E) (SEQ. ID NO: 4) kinase (Homo sapiens (Human), UniProt P15056, V600E). The assay is described as follows: Biochemical Assay for B-Raf (V600E) (2). Particulars: Table J, BRAF V600E, biochemical assay (2); read-out: BRAF VE (2). The procedure, abridged: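 Coupled pyruvate kinase/lactate dehydrogenase assay tracking NADH oxidation (A340) with 0.5 nM B-Raf V600E, 100 nM MEK substrate, 1 mM ATP, pH 7.5 Tris/MgCl2 buffer, 1% DMSO. Read hourly 4 h at 30 °C; rate over 3–4 h gives percent inhibition, IC50 from four-parameter fit.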

The subject of assay [3] is WM3928 cells. The assay is described as follows: WM3928 Cell Proliferation Assay (2). In kind it is cell-based.
Assay [4] has as its target A-Raf kinase (SEQ. ID No: 1) (Homo sapiens (Human), UniProt P10398, Y301D/Y302D). The experiment in a line: Biochemical Assay for A-Raf (2). As to conditions: Table J, biochemical assay (2); read-out: ARAF (2). Put shortly:
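Coupled pyruvate kinase/lactate dehydrogenase assay with 20 nM A-Raf, 100 nM MEK substrate, 1 mM ATP, pH 7.5 Tris buffer, 1% DMSO. NADH oxidation followed at 340 nm hourly for 4 h at 30 °C, rate taken over 3–4 h. IC50 from four-parameter fit of percent inhibition.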

pIC50: −log10 of the molar value.

B-Raf (V600E) (SEQ. ID NO: 4) kinase, sequence (P15056 416-766 V600E): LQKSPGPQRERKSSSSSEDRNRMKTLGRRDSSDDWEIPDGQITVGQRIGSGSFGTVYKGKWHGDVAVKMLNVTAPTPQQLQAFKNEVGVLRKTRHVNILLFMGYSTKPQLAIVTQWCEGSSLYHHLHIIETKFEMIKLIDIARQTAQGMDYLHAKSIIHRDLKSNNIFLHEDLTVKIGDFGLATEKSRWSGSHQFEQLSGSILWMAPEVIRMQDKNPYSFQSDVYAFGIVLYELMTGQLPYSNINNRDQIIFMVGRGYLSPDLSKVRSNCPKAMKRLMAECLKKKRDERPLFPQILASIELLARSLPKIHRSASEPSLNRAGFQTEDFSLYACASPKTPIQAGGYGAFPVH
A-Raf kinase (SEQ. ID No: 1), sequence (P10398 other isoform, or with tags, fused parts or gaps Y301D (already in the parent)/Y302D (already in the parent)): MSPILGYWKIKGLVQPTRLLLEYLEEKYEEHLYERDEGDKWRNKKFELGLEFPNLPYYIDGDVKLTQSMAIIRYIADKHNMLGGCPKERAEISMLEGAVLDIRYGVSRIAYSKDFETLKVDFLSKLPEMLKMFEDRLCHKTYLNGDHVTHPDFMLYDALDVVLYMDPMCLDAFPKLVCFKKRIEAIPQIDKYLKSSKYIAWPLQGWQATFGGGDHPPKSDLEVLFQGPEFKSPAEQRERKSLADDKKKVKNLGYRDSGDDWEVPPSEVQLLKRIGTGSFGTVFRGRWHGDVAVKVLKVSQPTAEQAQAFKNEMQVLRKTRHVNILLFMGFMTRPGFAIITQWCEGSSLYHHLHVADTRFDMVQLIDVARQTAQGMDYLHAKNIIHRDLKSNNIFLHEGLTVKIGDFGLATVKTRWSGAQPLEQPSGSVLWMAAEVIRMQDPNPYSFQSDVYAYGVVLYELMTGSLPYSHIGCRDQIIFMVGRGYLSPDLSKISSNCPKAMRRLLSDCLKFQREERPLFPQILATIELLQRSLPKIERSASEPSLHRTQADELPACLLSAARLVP

Consider `CNC(=O)c1cc(-c2cc(-c3cc(NC(=O)c4ccnc(C(C)(C)F)c4)ccc3Cl)ccn2)ccn1` [Example 485], for which the pIC50 in assay [1] is at least 7.00; in assay [2] it was at least 7.00; in assay [3], at least 7.00; in assay [4], 5.00 to 6.00.
In the case of `Cc1ccc(NC(=O)c2ccnc(C(C)(C)F)c2)cc1-c1cnnc(-c2ccnc(C(N)=O)c2)c1` [Example 486], the pIC50 was 6.30 to 7.00 in assay [1], at least 7.00 in assay [2], 6.30 to 7.00 in assay [3] and 5.00 to 6.00 in assay [4].
In the case of `CNC(=O)c1cc(-c2cc(-c3cc(NC(=O)c4ccnc(C5(F)CC5)c4)ccc3C)ccn2)ccn1` [Example 487], the pIC50 is at least 7.00 in assay [1], at least 7.00 in assay [2], at least 7.00 in assay [3] and 6.30 to 7.00 in assay [4].
With `Cc1ccc(NC(=O)c2ccnc(C(C)(C)F)c2)cc1-c1cc(-c2ccnc(C(N)=O)c2)ncn1` [Example 488], the pIC50 in assay [1] was 6.30 to 7.00; in assay [2], at least 7.00; in assay [3], 6.30 to 7.00; in assay [4], 6.00 to 6.30.
Turning to `[2H]C([2H])([2H])NC(=O)c1cc(-c2cc(-c3cc(NC(=O)c4ccnc(C(C)(C)F)c4)ccc3C)ccn2)ccn1` [Example 489], the pIC50 in assay [1] was at least 7.00; in assay [2], at least 7.00; in assay [3], at least 7.00; in assay [4] it was 6.30 to 7.00.
Regarding `Cc1ccc(NC(=O)c2ccnc(C(C)(C)F)c2)cc1-c1cc(-c2ccnc(C(N)=O)c2)ncc1F` [Example 490], the pIC50 was 6.30 to 7.00 in assay [1], at least 7.00 in assay [2], 6.30 to 7.00 in assay [3] and 5.00 to 6.00 in assay [4].
Consider `CC(C)(F)c1cc(C(=O)Nc2ccc(F)c(-c3ccnc(-c4ccnc(C(N)=O)c4)c3)c2)ccn1` [Example 491], for which the pIC50 in assay [1] is 5.00 to 6.00; in assay [2], at least 7.00; in assay [3] it was 6.00 to 6.30; in assay [4], 5.00 to 6.00.
With `CNC(=O)c1cc(-c2cc(-c3cc(NC(=O)c4cnnc(C(C)(F)F)c4)ccc3C)ccn2)ccn1` [Example 492], the pIC50 is 6.30 to 7.00 in assay [1], at least 7.00 in assay [2], 6.30 to 7.00 in assay [3] and 5.00 to 6.00 in assay [4].
Turning to `[2H]C([2H])([2H])NC(=O)c1cc(-c2cc(-c3cc(NC(=O)c4ccnc(C(C)(C)F)c4)ccc3C)cc(C)n2)ccn1` [Example 493], the pIC50 in assay [1] was at least 7.00; in assay [2], at least 7.00; in assay [3], at least 7.00; in assay [4], 5.00 to 6.00.
On to `CNC(=O)c1cc(-c2cc(-c3cc(NC(=O)c4ccnc(C(C)(C)F)n4)ccc3C)ccn2)ccn1` [Example 494], for which the pIC50 in assay [1] is 5.00 to 6.00; in assay [2], at least 7.00; in assay [3] it was 6.00 to 6.30; in assay [4], 5.00 to 6.00.
With `CNC(=O)c1cc(-c2cc(-c3cc(NC(=O)c4cnnc(C(C)(C)F)c4)ccc3C)ccn2)ccn1` [Example 495], the pIC50 in assay [1] is at least 7.00; in assay [2], at least 7.00; in assay [3], at least 7.00; in assay [4], 6.00 to 6.30.
As to `CNC(=O)c1cc(-c2cc(-c3cc(NC(=O)c4ccnc(C5(F)CC5)c4)ccc3C)cc(C)n2)ccn1` [Example 496], the pIC50 in assay [1] is at least 7.00; in assay [2], at least 7.00; in assay [3], at least 7.00; in assay [4], 5.00 to 6.00.
In the case of `CNC(=O)c1cc(-c2cc(-c3cc(NC(=O)c4ccnc(C(C)(C)F)c4)c(F)cc3C)ccn2)ccn1` [Example 497], the pIC50 in assay [1] is 6.30 to 7.00; in assay [2], at least 7.00; in assay [3], 6.30 to 7.00; in assay [4] it was 5.00 to 6.00.
For the molecule `[2H]C([2H])([2H])NC(=O)c1cc(-c2cc(-c3cc(NC(=O)c4ccnc(C5(F)CC5)c4)ccc3C)cc(C)n2)ccn1` [Example 498], the pIC50 was 6.30 to 7.00 in assay [1], at least 7.00 in assay [2], at least 7.00 in assay [3] and 5.00 to 6.00 in assay [4].
For `CNC(=O)c1cc(-c2cc(-c3cc(NC(=O)c4ccnc(C(C)(C)F)c4)ncc3C)ccn2)ccn1` [Example 499], the pIC50 in assay [1] was at least 7.00; in assay [2], at least 7.00; in assay [3], 6.30 to 7.00; in assay [4] it was 5.00 to 6.00.
For `Cc1ccc(NC(=O)c2cn(C)nc2C(F)(F)F)cc1-c1cncc(-c2ccnc(NC(=O)C3CC3)c2)c1` [Example 500], the pIC50 is 5.00 to 6.00 in assay [1], at least 7.00 in assay [2], 6.00 to 6.30 in assay [3] and 5.00 to 6.00 in assay [4].
`Cc1ccc(NC(=O)c2ccc(C(F)(F)F)cc2)cc1-c1ccnc(-c2ccnc(NC(=O)C3CC3)c2)c1` [Example 501]: the pIC50 in assay [1] was 6.30 to 7.00; in assay [2] it was 6.30 to 7.00; in assay [3] it was 6.30 to 7.00; in assay [4] it was 5.00 to 6.00.
In the case of `Cc1ccc(NC(=O)c2cccc(C(F)(F)F)c2)cc1-c1ccnc(-c2ccnc(NC(=O)C3CC3)c2)c1` [Example 502], the pIC50 in assay [1] was at least 7.00; in assay [2], at least 7.00; in assay [3], at least 7.00; in assay [4], 6.30 to 7.00.
On to `Cc1ccc(NC(=O)c2cc(C(F)(F)F)ccc2F)cc1-c1ccnc(-c2ccnc(NC(=O)C3CC3)c2)c1` [Example 503], for which the pIC50 was 6.30 to 7.00 in assay [1], at least 7.00 in assay [2], at least 7.00 in assay [3] and 6.30 to 7.00 in assay [4].
